# Values quoted from earlier work as cited in patent US20040067252A1, “Novel modified release formulation” (priority 2001, published 2004).
# Conditions: at 25° C.
smiles,measurement,value
Cn1c(=O)c2[nH]cnc2n(C)c1=O [theophylline],water solubility,8300 µg/mL
